# Experiments:
# [1] = target: human Nav1.8 (Homo sapiens (Human), UniProt Q9Y5Y9); assay: E-VIPR optical membrane potential assay with electrical stimulation; assay type: cell-based; conditions: HEK cells expressing human Nav1.8
# Summary of the method: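 HEK cells expressing human Nav1.8 were loaded with CC2-DMPE (8 μM) and DiSBAC6(3) (2.5 μM), then given compound for 20-35 min at room temperature (0.625% DMSO). Cells received a 10-s current-controlled electrical stimulus. Response was the stimulated/baseline 460/580 nm emission ratio (Rf/Ri), with tetracaine (125 μM) as positive control.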
# [2] = Human liver microsome assay; assay type: in vitro ADME; conditions: 1 uM substrate, 0.5 mg/mL liver microsome, 2 mM NADPH, 37° C., referenced against time zero control
# Summary of the method: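 Pooled human liver microsomes (0.5 mg/mL) with 1 uM substrate (0.2% DMSO), 2 mM NADPH, 0.1 M phosphate, shaken 30 min at 37° C. Quenched with cold acetonitrile; parent quantified by LC/MS/MS. Value is % substrate remaining at 30 min versus a time-zero control without NADPH.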
# Sequence of human Nav1.8 (Q9Y5Y9 whole entry): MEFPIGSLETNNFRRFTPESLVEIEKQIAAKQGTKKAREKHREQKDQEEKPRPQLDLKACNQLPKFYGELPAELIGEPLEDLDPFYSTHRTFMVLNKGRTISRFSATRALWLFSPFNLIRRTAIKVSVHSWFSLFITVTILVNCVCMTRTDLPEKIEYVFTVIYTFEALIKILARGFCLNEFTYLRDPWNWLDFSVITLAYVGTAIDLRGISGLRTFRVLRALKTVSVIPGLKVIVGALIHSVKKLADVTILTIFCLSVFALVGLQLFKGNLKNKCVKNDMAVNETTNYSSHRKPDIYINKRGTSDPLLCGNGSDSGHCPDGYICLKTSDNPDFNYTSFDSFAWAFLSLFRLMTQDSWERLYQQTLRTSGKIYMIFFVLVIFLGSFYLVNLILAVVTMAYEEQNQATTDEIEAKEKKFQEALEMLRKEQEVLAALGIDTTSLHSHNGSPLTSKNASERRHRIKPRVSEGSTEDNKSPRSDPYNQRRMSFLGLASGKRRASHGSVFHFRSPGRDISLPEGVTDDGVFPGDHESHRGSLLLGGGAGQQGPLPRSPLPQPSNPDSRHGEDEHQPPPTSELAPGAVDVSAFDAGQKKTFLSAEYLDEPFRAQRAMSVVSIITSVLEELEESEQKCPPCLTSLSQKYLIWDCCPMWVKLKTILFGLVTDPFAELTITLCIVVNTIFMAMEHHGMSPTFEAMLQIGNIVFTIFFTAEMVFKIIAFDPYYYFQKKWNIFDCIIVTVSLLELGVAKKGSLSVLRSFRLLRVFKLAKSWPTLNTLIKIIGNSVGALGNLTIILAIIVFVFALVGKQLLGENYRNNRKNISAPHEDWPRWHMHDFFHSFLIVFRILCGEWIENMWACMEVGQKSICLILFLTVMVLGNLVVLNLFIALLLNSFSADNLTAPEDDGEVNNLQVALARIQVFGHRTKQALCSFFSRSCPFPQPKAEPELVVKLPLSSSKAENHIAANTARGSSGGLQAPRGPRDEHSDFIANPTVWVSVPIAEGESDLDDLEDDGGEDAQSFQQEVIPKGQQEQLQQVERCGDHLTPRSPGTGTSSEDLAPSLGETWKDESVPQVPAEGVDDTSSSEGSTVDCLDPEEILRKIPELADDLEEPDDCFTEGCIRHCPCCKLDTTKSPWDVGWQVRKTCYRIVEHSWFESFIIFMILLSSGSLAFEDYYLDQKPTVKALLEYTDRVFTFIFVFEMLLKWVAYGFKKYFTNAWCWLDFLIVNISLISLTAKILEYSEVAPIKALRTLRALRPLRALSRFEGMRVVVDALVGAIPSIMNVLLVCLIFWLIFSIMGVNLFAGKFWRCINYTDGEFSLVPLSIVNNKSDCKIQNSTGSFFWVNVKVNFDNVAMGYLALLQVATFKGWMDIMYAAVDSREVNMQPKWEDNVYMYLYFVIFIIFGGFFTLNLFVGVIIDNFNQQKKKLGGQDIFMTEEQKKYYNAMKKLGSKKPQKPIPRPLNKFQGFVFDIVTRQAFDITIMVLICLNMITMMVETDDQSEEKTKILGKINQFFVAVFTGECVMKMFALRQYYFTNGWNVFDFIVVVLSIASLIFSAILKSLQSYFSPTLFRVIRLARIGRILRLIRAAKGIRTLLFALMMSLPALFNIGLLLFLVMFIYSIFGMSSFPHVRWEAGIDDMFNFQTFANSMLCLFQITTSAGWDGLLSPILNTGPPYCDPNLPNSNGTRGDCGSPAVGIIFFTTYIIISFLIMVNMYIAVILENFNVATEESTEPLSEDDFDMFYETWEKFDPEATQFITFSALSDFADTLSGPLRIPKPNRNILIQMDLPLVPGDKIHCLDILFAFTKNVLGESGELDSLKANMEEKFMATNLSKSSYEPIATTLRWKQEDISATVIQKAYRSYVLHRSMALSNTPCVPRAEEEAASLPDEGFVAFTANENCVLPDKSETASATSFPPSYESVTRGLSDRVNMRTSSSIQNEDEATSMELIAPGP
Structure (SMILES),IC50 [1],HLM: percent unchanged after 30 min [2]
"NS(=O)(=O)c1cccc(NC(=O)c2c(Cl)cc(Cl)cc2Oc2ccc(F)cc2)c1 [Compound 94, 2,4-dichloro-6-(4-fluorophenoxy)-N-(3-sulfamoylphenyl)benzamide]",5 nM,97%
"COc1cc(F)ccc1Oc1cc(Cl)cc(Cl)c1C(=O)Nc1cccc(S(N)(=O)=O)c1 [Compound 95, 2,4-dichloro-6-(4-fluoro-2-methoxyphenoxy)-N-(3-sulfamoylphenyl)benzamide]",0.9 nM,91%
"COc1cc(Cl)ccc1Oc1cc(Cl)cc(Cl)c1C(=O)Nc1cccc(S(N)(=O)=O)c1 [Compound 98, 2,4-dichloro-6-(4-chloro-2-methoxyphenoxy)-N-(3-sulfamoylphenyl)benzamide]",0.8 nM,62%
"COc1ccc(Oc2cc(Cl)cc(Cl)c2C(=O)Nc2cccc(S(N)(=O)=O)c2)c(F)c1 [Compound 99, 2,4-dichloro-6-(2-fluoro-4-methoxyphenoxy)-N-(3-sulfamoylphenyl)benzamide]",5 nM,63%

# The remaining molecules from weak to strong by IC50 [1], led by results:
IC50 [1],HLM: percent unchanged after 30 min [2],Structure (SMILES)
4 nM,102%,"NS(=O)(=O)c1cccc(NC(=O)c2c(Cl)cc(Cl)cc2Oc2ccc(OC(F)(F)F)cc2)c1 [Compound 97, 2,4-dichloro-N-(3-sulfamoylphenyl)-6-(4-(trifluoromethoxy)phenoxy)benzamide]"
2 nM,96%,"Cc1cc(F)ccc1Oc1cc(C(F)(F)F)cc(C(F)(F)F)c1C(=O)Nc1cccc(S(N)(=O)=O)c1 [Compound 93, 2-(4-fluoro-2-methylphenoxy)-N-(3-sulfamoylphenyl)-4,6-bis(trifluoromethyl)benzamide]"
1 nM,96%,"Cc1cc(F)ccc1Oc1cc(Cl)cc(Cl)c1C(=O)Nc1cccc(S(N)(=O)=O)c1 [Compound 96, 2,4-dichloro-6-(4-fluoro-2-methylphenoxy)-N-(3-sulfamoylphenyl)benzamide]"

# From patent US11203571B2, “Sulfonamides as modulators of sodium channels” (VERTEX PHARMACEUTICALS INCORPORATED, priority 2013, dated 2021)
